Entries after “also recorded” stand apart in the source; their conditions may differ. Where no end group is shown, it is not given here.
Assays:
Format in all cases: cell-based, human
HUVEC cells [1] = test: Cell attachment assay (MTS) on coated wells; conditions: substrate coated at 20, 50, 100 μg/ml (fibronectin 10 and 100 μg/ml), 30 minute incubation, vs BSA 2 mg/ml
Experimental: Immulon 1B, untreated 96-well plates (CoStar), and untreated 35 mm dishes (CoStar) were purchased from Fisher Scientific (Pittsburg, Pa.). Human umbilical vein endothelial cells (HUVECs), cell culture media and supplements were purchased from Lonza (Basel, Switzerland). EMD peptides as shown in SEQ ID Nos: 1-4, were synthesized by Commonwealth Biotechnologies Inc., (Richmond, Va.). Amino acid analysis was performed on the peptides to verify the amino acid sequence.
For the adhesion studies 96-well Immulon 1B plates were used. Various concentrations of the EMD peptides (SEQ ID Nos: 1-4) were tested for their ability to bind cells, and compared to the full-length protein, from which the EMD peptides were derived as positive controls. Bovine Serum Albumin (BSA) treated wells were used as a negative control. Full-length collagen IV, and the EMD peptides Hep I, Hep III, FCHV, and RGD were tested at concentrations of 20 μg/ml, 50 μg/ml, and 100 μg/ml. Full length fibronectin was tested at concentrations of 10 μg/ml and 100 μg/ml. Negative control wells were coated with BSA at a concentration of 2 mg/ml. Fifty μL of protein or EMD peptide solutions at the various concentrations was added separate wells and incubated at 37° C. for at least 18 hours. The protein or peptide solution was then removed and the wells were blocked for 2 hours at 37° C. with 2 mg/mL BSA solution. Following the blocking procedure, wells were washed twice with PBS. HUVEC cells (Lonza, Basel Switzerland) were then added to the wells at a concentration of 5×10^3 to 1×10^4 cells per well. Following a thirty-minute incubation, […] wells were washed and cell adhesion was determined using an MTS (3-(4,5-dimethylthiazol-2-yl)-5-(3-carboxymethoxyphenyl)-2-(4-sulfophenyl)-2H-tetrazolium, inner salt) tetrazolium/formazan assay (Promega, Madison, Wis.) according to the manufacturer's instructions.

HUVEC cells [2] = test: Cell proliferation assay (MTS) on coated wells; conditions: substrate coated at 20, 50, 100 μg/ml (fibronectin 10 and 100 μg/ml), 1-4 days, vs BSA 2 mg/ml, p<0.05
Experimental: To determine if EMD peptides can activate cells by stimulating cellular proliferation, 96-well plates coated using the same protocol as described above for the cell attachment assay was used. Following treatment of the wells, HUVEC cells (Lonza, Basel Switzerland) were then added to the wells at a concentration of 5×10^3 to 1×10^4 cells per well and incubated under standard culture conditions for 1, 2, 3 or 4 days. Cell proliferation was then determined at the end of the incubation period using an MTS tetrazolium/formazan assay (Promega, Madison, Wis.) according to the manufacturer's instructions.

HUVEC cells [3] = test: Haptotactic cell migration assay, modified Boyden chamber; conditions: 6 hours; for haptotactic migration compared to untreated membranes: membrane coated at 500 ng/ml to 300 μg/ml, normalized to uncoated control
Experimental: In order to test the ability of EMD peptides to recruit cells haptotactic migration assays with Hep I (SEQ ID NO:1), Hep ITT (SEQ TD NO:2), FC/HV (SEQ ID NO:3), RGD (SEQ ID NO:4), FN, and Col IV were conducted using a modified Boyden chamber. Haptotactic migration was performed in triplicate and was assessed using a modified Boyden chamber (Corning, CoStar, Acton, Mass.). The assay was carried out as follows: the lower chamber was first blocked with 10% BSA for at least 30 minutes at 37° C. followed by 3 washings with PBS. The lower surface of the membrane on the upper chamber was coated with approximately 10 μL of protein or EMD peptide solution having a concentration between 500 ng/mL-300 μg/mL and allowed to incubate for 15-30 minutes at 37° C. and then allowed to air dry at room temperature under aseptic conditions. At least one assay was performed for each concentration. Basal cell media supplemented with 0.5% BSA was then added to the lower chamber and 100 μL of H U V ECs (1×10^4 to 2×10^4 cells) in the same cell media was added to the upper chamber. The chambers were then incubated at 37° C., 5.0% CO2 for 6 hours. Upon completion of the incubation period, the cells on the membrane of the upper chamber were fixed with 4% paraformaldehyde followed by removal of the cells on the upper side of the membrane with a Q-tip. Next, the membrane was carefully removed from the chamber, dipped in a 1:4000 dilution of Hoechst 33342 (Invitrogen, Carlsbad, Calif.) and placed on a glass slide. Using a fluorescent microscope (Nikon Eclipse E800) at 10× magnification, five random fields of view were photographed on each membrane for determination of the area cell density.
In order to allow for direct comparison, the area cell density of migrated cells was normalized to the area cell density of migrated cells on the uncoated (0 μg/mL) control membrane. See, FIG. 3.

Substance	cell attachment compared to BSA control (HUVEC cells [1]; p<0.05)	cell attachment compared to BSA control (HUVEC cells [1]; p<0.05, listed as Fibronectin)	cell proliferation (cell activation) compared to BSA control (HUVEC cells [2])	haptotactic migration compared to untreated membranes (HUVEC cells [3]; p<0.05)	haptotactic migration compared to untreated membranes (HUVEC cells [3]; p<0.05, listed as FC/HV)	concentrations showing statistically significant migration (HUVEC cells [3]; coated membrane, vs uncoated control membrane)
fibronectin: Full length fibronectin, positive control [reference compound]	significantly better at promoting cell attachment	increased cell attachment	increased cellular proliferation; also recorded: significantly better at stimulating cellular proliferation	promoted haptotactic migration		
WQPPRARI-OH [FCHV]	not statistically different from that of the BSA treated wells; also recorded: not significantly different from that of the BSA control		not different from that of cells cultured in wells coated with BSA; also recorded: not statistically different as compared to the BSA control	did not promote haptotactic migration	did not show statistically significant migration at any of the concentrations tested	
GEFYFDLRLKGDKY-OH [Hep III]	increased cell attachment; also recorded: significantly better at promoting cell attachment		increased cellular proliferation; also recorded: significantly better at promoting cell proliferation	significant migration compared to control; also recorded: promoted haptotactic migration		
GRGDSPASSPISC-OH	increased cell attachment; also recorded: significantly better at promoting cell attachment		increased cellular proliferation; also recorded: significantly better at stimulating cellular proliferation	significant migration compared to control; also recorded: promoted haptotactic migration		
TAGSCLRKFSTMY-OH [Hep I]	not statistically different from that of the BSA treated wells; also recorded: not significantly different from that of the BSA control		increased cellular proliferation; also recorded: significantly better at promoting cell proliferation	promoted haptotactic migration		greater than 1 μg/ml

Reference: US8889140B2, “Compositions and methods for tissue repair” (TransTarget, Inc., priority 2007, dated 2014)
